Measured values published in publication PMC12028158, “Synthesis and In Vitro Evaluation of the Anticancer Effect of Novel Phosphonium Vindoline Derivatives” (International Journal of Molecular Sciences, 2025).
Where two headings read alike, the source gives them in different places.

Experiments:
Assay type in all cases: cell-based
MOLT-4 = experiment: NCI60 one-dose screen; details: Homo sapiens
SF-268 = experiment: NCI60 one-dose screen; details: Homo sapiens
SK-MEL-28 [1] = experiment: NCI60 one-dose screen; details: Homo sapiens
SF-295 = experiment: NCI60 one-dose screen; details: Homo sapiens
IGROV1 = experiment: NCI60 one-dose screen; details: Homo sapiens
SK-MEL-5 [2] = experiment: NCI60 one-dose screen; details: Homo sapiens
SNB-19 [3] = experiment: NCI60 one-dose screen; details: Homo sapiens
SK-MEL-2 = experiment: NCI60 one-dose screen; details: Homo sapiens
M14 = experiment: NCI60 one-dose screen; details: Homo sapiens
NCI-H23 [4] = experiment: NCI60 one-dose screen; details: Homo sapiens
NCI-H460 = experiment: NCI60 one-dose screen; details: Homo sapiens
OVCAR-8 [5] = experiment: NCI60 one-dose screen; details: Homo sapiens
NCI-H322M = experiment: NCI60 one-dose screen; details: Homo sapiens, read-out: Growth percent
SN12C = experiment: NCI60 one-dose screen; details: Homo sapiens, read-out: Growth percent
786-0 = experiment: NCI60 one-dose screen; details: Homo sapiens
RPMI-8226 = experiment: NCI60 one-dose screen; details: Homo sapiens
HOP-92 = experiment: NCI60 one-dose screen; details: Homo sapiens
MALME-3M [6] = experiment: NCI60 one-dose screen; details: Homo sapiens, read-out: Growth percent
UACC-62 = experiment: NCI60 one-dose screen; details: Homo sapiens
MCF7 [7] = experiment: NCI60 one-dose screen; details: Homo sapiens
HS 578T = experiment: NCI60 one-dose screen; details: Homo sapiens, read-out: Growth percent
MDA-MB-435 = experiment: NCI60 one-dose screen; details: Homo sapiens
LOX IMVI = experiment: NCI60 five-dose screen; details: Homo sapiens, Melanoma, five-dose, read-out: GI50
Leukemia panel = experiment: NCI60 five-dose screen, panel mean; details: Homo sapiens; mean over Leukemia panel; read-out: Mean GI50
COLO 205 = experiment: NCI60 one-dose screen; details: Homo sapiens; COLO 205, 10 μM, one-dose; read-out: Growth percent
MALME-3M [8] = experiment: NCI60 five-dose screen; details: Homo sapiens; MALME-3M, Melanoma, five-dose; read-out: GI50
SNB-19 [9] = experiment: NCI60 five-dose screen; details: Homo sapiens, read-out: GI50
OVCAR-8 [10] = experiment: NCI60 five-dose screen; details: Homo sapiens; OVCAR-8, Ovarian Cancer, five-dose; read-out: GI50
NCI-H23 [11] = experiment: NCI60 five-dose screen; details: Homo sapiens; NCI-H23, Non-small Cell Lung Cancer, five-dose; read-out: GI50
Renal Cancer panel = experiment: NCI60 five-dose screen, panel mean; details: Homo sapiens; mean over Renal Cancer panel; read-out: Mean GI50
SF-539 = experiment: NCI60 five-dose screen; details: Homo sapiens; SF-539, CNS Cancer, five-dose; read-out: GI50
SK-MEL-28 [12] = experiment: NCI60 five-dose screen; details: Homo sapiens; SK-MEL-28, Melanoma, five-dose; read-out: GI50
HCT-15 = experiment: NCI60 five-dose screen; details: Homo sapiens; HCT-15, Colon Cancer, five-dose; read-out: GI50
MDA-MB-468 = experiment: NCI60 five-dose screen; details: Homo sapiens, read-out: GI50
Ovarian Cancer panel = experiment: NCI60 five-dose screen, panel mean; details: Homo sapiens; mean over Ovarian Cancer panel; read-out: Mean GI50
SK-MEL-5 [13] = experiment: NCI60 five-dose screen; details: Homo sapiens; SK-MEL-5, Melanoma, five-dose; read-out: GI50
A549/ATCC = experiment: NCI60 five-dose screen; details: Homo sapiens; A549/ATCC, Non-small Cell Lung Cancer, five-dose; read-out: GI50
KM12 = experiment: NCI60 five-dose screen; details: Homo sapiens, read-out: GI50
UACC-257 = experiment: NCI60 five-dose screen; details: Homo sapiens, read-out: GI50
HOP-62 = experiment: NCI60 five-dose screen; details: Homo sapiens; HOP-62, Non-small Cell Lung Cancer, five-dose; read-out: GI50
OVCAR-3 = experiment: NCI60 five-dose screen; details: Homo sapiens; OVCAR-3, Ovarian Cancer, five-dose; read-out: GI50
T-47D = experiment: NCI60 five-dose screen; details: Homo sapiens, T47D; T-47D, Breast Cancer, five-dose; read-out: GI50
HL-60(TB) = experiment: NCI60 five-dose screen; details: Homo sapiens, read-out: GI50
MCF7 [14] = experiment: NCI60 five-dose screen; details: Homo sapiens, read-out: GI50

CCC12C=CCN3CC[C@@]4(c5ccc(OC)cc5N(C)[C@H]4[C@@](O)(C(=O)OC)[C@@H]1OC(C)=O)[C@@H]32 (stereo partly drawn) [compound 2, vindoline]
activity at 10 µM (MOLT-4; MOLT-4, read-out: Growth percent): 103% | activity at 10 µM (SF-268; SF-268, read-out: Growth percent): 100% | activity at 10 µM (SK-MEL-28 [1]; SK-MEL-28, read-out: Growth percent): 106% | activity at 10 µM (SF-295; SF-295, read-out: Growth percent): 99.5% | activity at 10 µM (IGROV1; IGROV-1, read-out: Growth percent): 98.4% | activity at 10 µM (SK-MEL-5 [2]; SK-MEL-5, read-out: Growth percent): 102% | activity at 10 µM (SNB-19 [3]; SNB-19, read-out: Growth percent): 96.6% | activity at 10 µM (SK-MEL-2; SK-MEL-2, read-out: Growth percent): 107% | activity at 10 µM (M14; M14, read-out: Growth percent): 104% | activity at 10 µM (NCI-H23 [4]; NCI-H23, read-out: Growth percent): 103% | activity at 10 µM (NCI-H460; NCI-H460, read-out: Growth percent): 104% | activity at 10 µM (OVCAR-8 [5]; OVCAR-8, read-out: Growth percent): 99.8% | activity at 10 µM (NCI-H322M): 97.8% | activity at 10 µM (SN12C): 96.1% | activity at 10 µM (786-0; 786-0, read-out: Growth percent): 104% | activity at 10 µM (RPMI-8226; RPMI-8226, read-out: Growth percent): 101% | activity at 10 µM (HOP-92; HOP-92, read-out: Growth percent): 84.2% | activity at 10 µM (MALME-3M [6]; Malme-3M): 98% | activity at 10 µM (UACC-62; UACC-62, read-out: Growth percent): 94.7% | activity at 10 µM (MCF7 [7]; MCF7, read-out: Growth percent): 99% | activity at 10 µM (HS 578T; Hs-578T): 113% | activity at 10 µM (MDA-MB-435; MDA-MB-435, read-out: Growth percent): 105%

CC[C@]12C=CCN3CC[C@@]4(c5ccc(OC)cc5N(C)[C@H]4[C@@](O)(C(=O)OC)[C@@H]1OC(=O)CCC[P+](c1cc(C)c(OC)c(C)c1)(c1cc(C)c(OC)c(C)c1)c1cc(C)c(OC)c(C)c1)[C@@H]32 [9e]
activity at 10 µM (MOLT-4; MOLT-4, 10 μM, one-dose, read-out: Growth percent): -98.3% | GI50 (LOX IMVI): 0.145 µM | GI50 (Leukemia panel): 0.11 µM | activity at 10 µM (SF-268; SF-268, 10 μM, one-dose, read-out: Growth percent): -97.6% | activity at 10 µM (SK-MEL-28 [1]; SK-MEL-28, 10 μM, one-dose, read-out: Growth percent): -98.2% | activity at 10 µM (COLO 205): -96.6% | GI50 (MALME-3M [8]): 0.288 µM | activity at 10 µM (SF-295; SF-295, 10 μM, one-dose, read-out: Growth percent): -98.6% | activity at 10 µM (IGROV1; IGROV-1, IGROV1, 10 μM, one-dose, read-out: Growth percent): -99% | GI50 (SNB-19 [9]; SNB-19, CNS cancer SNB-19, text): < 0.1 µM | GI50 (SNB-19 [9]; SNB-19, SNB-19, CNS Cancer, five-dose): 0.059 µM | GI50 (OVCAR-8 [10]): 0.3 µM | GI50 (NCI-H23 [11]): 0.183 µM | GI50 (Renal Cancer panel): 0.44 µM | GI50 (SF-539): 0.307 µM | GI50 (SK-MEL-28 [12]): 0.272 µM | activity at 10 µM (SK-MEL-5 [2]; SK-MEL-5, 10 μM, one-dose, read-out: Growth percent): -97.5% | activity at 10 µM (SNB-19 [3]; SNB-19, 10 μM, one-dose, read-out: Growth percent): -97.1% | GI50 (HCT-15): 0.76 µM | activity at 10 µM (SK-MEL-2; SK-MEL-2, 10 μM, one-dose, read-out: Growth percent): -98.2% | activity at 10 µM (M14; M14, 10 μM, one-dose, read-out: Growth percent): -97.3% | activity at 10 µM (NCI-H23 [4]; NCI-H23, 10 μM, one-dose, read-out: Growth percent): -98.1% | activity at 10 µM (NCI-H460; NCI-H460, 10 μM, one-dose, read-out: Growth percent): -89.5% | activity at 10 µM (OVCAR-8 [5]; OVCAR-8, 10 μM, one-dose, read-out: Growth percent): -95.5% | activity at 10 µM (NCI-H322M; 10 μM, one-dose): -98.1% | GI50 (MDA-MB-468; MDA-MB-468, MDA-MB-468, Breast Cancer, five-dose): 0.027 µM | GI50 (MDA-MB-468; MDA-MB-468, breast cancer MDA-MB-468, text): < 0.1 µM | activity at 10 µM (SN12C; 10 μM, one-dose): -96.7% | activity at 10 µM (786-0; 786-0, 10 μM, one-dose, read-out: Growth percent): -97.9% | activity at 10 µM (RPMI-8226; RPMI-8226, 10 μM, one-dose, read-out: Growth percent): -98.3% | activity at 10 µM (HOP-92; HOP-92, 10 μM, one-dose, read-out: Growth percent): -98.9% | GI50 (Ovarian Cancer panel): 0.94 µM | activity at 10 µM (MALME-3M [6]; MALME-3M, 10 μM, one-dose): -98.4% | GI50 (SK-MEL-5 [13]): 0.138 µM | activity at 10 µM (UACC-62; UACC-62, 10 μM, one-dose, read-out: Growth percent): -97.7% | GI50 (A549/ATCC): 0.275 µM | GI50 (KM12; KM12, KM12, Colon Cancer, five-dose): 0.047 µM | GI50 (KM12; KM12, colon cancer KM12, text): < 0.1 µM | GI50 (UACC-257; UACC-257, UACC-257, Melanoma, five-dose): 0.038 µM | GI50 (UACC-257; UACC-257, melanoma UACC-257, text): < 0.1 µM | activity at 10 µM (MCF7 [7]; MCF7, 10 μM, one-dose, read-out: Growth percent): -94.5% | activity at 10 µM (HS 578T; HS 578T, 10 μM, one-dose): -98.2% | GI50 (HOP-62): 0.173 µM | activity at 10 µM (MDA-MB-435; MDA-MB-435, 10 μM, one-dose, read-out: Growth percent): -98.2% | GI50 (OVCAR-3): 0.147 µM | GI50 (T-47D): 0.105 µM | GI50 (HL-60(TB); HL-60, HL-60(TB), Leukemia, five-dose): 0.039 µM | GI50 (HL-60(TB); HL-60, leukemia HL-60(TB)): < 0.1 µM | GI50 (MCF7 [14]; MCF7, MCF7, Breast Cancer, five-dose): 0.044 µM | GI50 (MCF7 [14]; MCF7, breast cancer MCF7, text): < 0.1 µM
